A short description of data set [1]: Slurry experiments (solid form stability, XRPD). In kind it is physicochemical. The protocol:
Slurry experiments were performed in various solvents. The samples were slurried for different periods of time depending on temperature. […] The water-containing slurries were performed to investigate possible hydrate formation.
Details of all slurry experiments performed, including solvent(s) used, total concentration and final form by XRPD, are given in Table 1.
Approximately 30 mg of linaprazan glurate maleic acid salt was used for each experiment, together with 20 different solvents (pure and binary solvents) at room temperature, at 4° C., at 40° C., and at 60° C., unless indicated otherwise. […] The solid phase was isolated and analysed with XRPD. The sample run at fridge temperature (ca 4° C.) was analysed after 26 and 53 days of slurry. The samples run at RT were analysed after 26 days of slurry. The samples run at 40° C. were analysed after 6 and 12 days of slurry. The samples run at 60° C. were analysed after 1 day of slurry.

Data set [2] in a line: Thermogravimetric analysis (TGA).
Procedure: Analyses were performed on a PerkinElmer TGA7 instrument. A few mg of sample was gently charged into open Pt-pans and analysed by weight in a flow of dry nitrogen gas (20 mL/min), to ensure an inert atmosphere. The sample was scanned from 25 to 200° C. using a continuous scan speed of 10° C./min. The weight loss was calculated from 25° C. up to 145° C.
A short description of data set [3]: Gravimetric/dynamic vapour sorption (GVS/DVS).
Procedure: Analyses were performed on an SMS DVS-1 instrument. A few mg of the substance was added into an Al pan and exposed to stepwise RH changes during two consecutive cycles according to 20-80-0-90-0%, in steps of 10% RH, using open loop mode. The experiments were performed using a gas flow rate of 200 mL/min and at 25° C. The dm/dt criteria applied was 0.001 weight-%/min during a 5-minute window, with a maximum allowed time of 360 minutes and a minimum allowed time of 10 minutes for all steps.
The hygroscopicity of Form 1 (obtained from the synthesis described below in example 1) was investigated using GVS at 25° C.
The conditions of data set [4]: free base Form A; cited from earlier work.
The conditions of data set [5]: cited from earlier work.
A further data set concerns intragastric acidity. The following applies: cited from earlier work.
The conditions of data set [6]: cited from earlier work. The source holds these as a separate data set.
The next data set can be described thus: clinical. The note with it: human, in vivo. The protocol: Linaprazan glurate is a prodrug of linaprazan, which was disclosed in WO 99/55706 and previously studied in Phase I and II studies. […] A clinical Phase I study has shown that administration of a single dose of linaprazan glurate can maintain the intragastric acidity above pH 4 for 24 hours. Linaprazan glurate is therefore tailored for patients with severe erosive gastroesophageal reflux disease (eGERD).
It is estimated that this requires a minimal plasma concentration (Cmin) of linaprazan of at least about 240 nmol/L after 22 hours. At such doses, a once daily oral administration of the formulation would be sufficient. In some embodiments, therefore, a single unit dose of a pharmaceutical composition of linaprazan glurate provides a Cmin of linaprazan in a human of at least about 240 nmol/L after 22 hours following oral administration of the pharmaceutical composition to said human. In other embodiments, a daily administration of two unit doses of a pharmaceutical composition of linaprazan glurate provides a Cmin of linaprazan in a human of at least about 240 nmol/L after 10 hours following oral administration of the last unit dose of the pharmaceutical composition to said human.

The test system of a further data set is gastric acid. The note with it: Phase I and II studies; cited from earlier work.
For data set [7] the following is noted: Phase I and II studies; cited from earlier work.

The structures appear in SMILES notation. “Also recorded” adds a separate entry of the source. Like-named read-outs stand apart in the source and are kept apart here. Marks after values point to notes of the source that are not given here.

For the compound `Cc1cccc(C)c1CNc1cc(C(=O)NCCOC(=O)CCCC(=O)O)cn2c(C)c(C)nc12.O=C(O)/C=C\C(=O)O` [Form 1, maleic acid salt of 5-{2-[({8-[(2,6-dimethylbenzyl)amino]-2,3-dimethylimidazo[1,2-a]pyridine-6-yl}carbonyl)-amino]ethoxy}-5-oxopentanoic acid], the Solid state form result in data set [1] (slurry in 1,4-dioxane, 63 mg/mL, 40° C., 6 and 12 days) is given as “Form 1”; in data set [1] (slurry in 1,4-dioxane:DMA 9:1, 103 mg/mL, RT, 26 days), “Form 1”; in [1] (slurry in 2-propanol, 56 mg/mL, 40° C., 6 and 12 days) it was “Form 1 + Crystalline”; in [1] (slurry in 2-propanol:DMA 9:1, 91 mg/mL, RT, 26 days), “Form 1”; in data set [1] (slurry in DMA, 890 mg/mL, RT, 26 days), “Crystalline base form”; in [1] (slurry in DMA, 1369 mg/mL, 40° C., 6 and 12 days), “Form 1 + Crystalline”. Further, the Solid state form entry in data set [1] (slurry in EtOAc, 36 mg/mL, 40° C., 6 and 12 days) is on record as “Form 1”; in [1] (slurry in EtOAc:DMA 9:1, 89 mg/mL, RT, 26 days), “Form 1 + Crystalline”; in [1] (slurry in EtOH, 61 mg/mL, 40° C., 6 and 12 days) it was “Form 1 + Crystalline”; in data set [1] (slurry in EtOH, 61 mg/mL, RT, 26 days), “Form 1”; in data set [1] (slurry in MIBK, 53 mg/mL, 40° C., 6 and 12 days), “Form 1”; in data set [1] (slurry in MIBK, 62 mg/mL, 60° C., 1 day), “Form 1”. For the same compound, the Solid state form entry in data set [1] (slurry in MIBK:DMA 9:1, 84 mg/mL, RT, 26 days) is reported as “Form 1”; in data set [1] (slurry in MTBE, 68 mg/mL, 40° C., 6 and 12 days), “Form 1 + MTBE solvate”; in data set [1] (slurry in MTBE:DMA 9:1, 99 mg/mL, RT, 26 days, analysed also after 53 days) it was “Form 1 + MTBE solvate*”; in data set [1] (slurry in MeCN, 52 mg/mL, 40° C., 6 and 12 days), “Form 1”; in data set [1] (slurry in MeCN, 63 mg/mL, 60° C., 1 day) it was “Form 1”; in data set [1] (slurry in MeCN:DMA 9:1, 85 mg/mL, RT, 26 days), “Form 1 + Crystalline”. The Solid state form entry is “Crystalline base form” in data set [1] (slurry in MeOH, 51 mg/mL, 40° C., 6 and 12 days); “Form 1 + Crystalline” in data set [1] (slurry in MeOH, 55 mg/mL, RT, 26 days); “Form 1 + Crystalline” in data set [1] (slurry in MeOH:water 4:1, 52 mg/mL, ca 4° C., 26 and 53 days); “Crystalline base form” in [1] (slurry in MeOH:water 4:1, 58 mg/mL, RT, 26 days); “Form 1 + Crystalline” in [1] (slurry in THF, 53 mg/mL, 40° C., 6 and 12 days); “Form 1” in [1] (slurry in THF, 63 mg/mL, 60° C., 1 day). Moreover, the Solid state form result in [1] (slurry in THF:DMA 9:1, 93 mg/mL, RT, 26 days) is “Form 1 + Crystalline”; in [1] (slurry in acetone, 29 mg/mL, RT, analysed after 21 days), “Form 1**”; in data set [1] (slurry in benzyl alcohol, 332 mg/mL, RT, analysed after 21 days), “Form 1**”. Further, in data set [2], the “weight loss (TGA)” value is recorded as 0.17%. Besides, the hygroscopicity classification entry in data set [3] (GVS/DVS at 25° C.) is “slightly hygroscopic; also recorded: low hygroscopicity”. Moreover, the water uptake result in data set [3] (at 80% RH, dynamic vapour sorption) is given as “about 0.45%”. Besides, the uptake of water in data set [3] (humidity range 0 to 80% RH, GVS at 25° C.) was roughly 0.4%.

Turning to `Cc1cccc(C)c1CNc1cc(C(=O)NCCOC(=O)CCCC(=O)O)cn2c(C)c(C)nc12` [Form A], the hygroscopicity entry in [4] is reported as “very low hygroscopicity”. The “physical and chemical stability” value in data set [4] was “good physical and chemical stability”. In addition, the results for the solubility in water entry in data set [5] (pH 1) and in data set [5] (pH 6.8) were “only slightly soluble” and “practically insoluble”, respectively.

As to `Cc1cccc(C)c1CNc1cc(C(=O)NCCOC(=O)CCCC(=O)O)cn2c(C)c(C)nc12` [linaprazan glurate, 5-{2-[({8-[(2,6-dimethylbenzyl)amino]-2,3-dimethylimidazo[1,2-a]pyridine-6-yl}carbonyl)-amino]ethoxy}-5-oxopentanoic acid], in the data set on intragastric acidity (compared to linaprazan), the “control of the gastric acid production” value is on record as “total control of the gastric acid production for a longer time”. In the data set on intragastric acidity (single dose, maintained for 24 hours, clinical Phase I study), the “intragastric acidity (pH) maintained” value is given as greater than 4. In addition, the “plasma concentration of linaprazan glurate” value in data set [6] (after administration of linaprazan glurate) was “only very low and difficult to determine”. In addition, in data set [6] (compared to linaprazan), the “half-life in the body” value is “longer half-life in the body”. Also, in data set [6] (following absorption into the blood stream), the metabolism result is “quickly metabolized into linaprazan”.

Turning to `Cc1cccc(C)c1CNc1cc(C(=O)NCCO)cn2c(C)c(C)nc12` [linaprazan], in the data set “clinical”, the concentration at 22 h was no less than 240 nM. Further, in the data set with gastric acid, the “duration of acid inhibition” value is “too short duration of acid inhibition”; the “onset of action / effect” value is “fast onset of action and full effect at first dose”. Also, in data set [7], the “elimination from the body” value is “quickly eliminated from the body” and the tolerability entry is “well tolerated”.

These data come from US20260226043A1, “POLYMORPHS OF THE MALEIC ACID SALT OF LINAPRAZAN GLURATE” (Cinclus Pharma Holding AB (publ), priority 2023, published 2026).
